# In US20220331257A1, “LIQUID PHARMACEUTICAL COMPOSITIONS WITH STABLE DRUG RELEASE PROFILES” (Avadel Legacy Pharmaceuticals, LLC, priority 2019, published 2022):
# Tests used:
# [1] = Osmolality of osmotic agent solutions (external phase); format: physicochemical; details: for Osmolality (extrapolated): third order polynomial fit
# Text: In these attempts, the osmolality ratio of the composition was greater than 1 (measured at ambient temperature using a vapor pressure osmometer (model Vapro 5600 XR from ELITech/WESCOR) with a measurement range from 20 mosmol/kg to 3500 mosmol/kg).
# To determine the osmolality of the external phase of the compositions, it was assumed that only the osmotic agent contributed to the external phase's osmolality because, in addition to the osmotic agent, the external phase contained only minimal amounts of the suspending agent (e.g., 0.1-0.2 wt %). Measurements were obtained experimentally up to 40 wt % sorbitol and up to 50 wt % maltitol and then extrapolated to 60 wt % using a fit with a third order polynomial form (Table 2). Measurements were also obtained for a commercially available sorbitol solution, NEOSORB® 70/70B, containing 70% of dry substance and a minimum of 74% sorbitol in the dry substance (Table 2).
# [2] = Solubility of drugs in water (saturated solutions); details: saturated solution in water
# [3] = Osmolality of saturated solutions of drugs in water (vapor pressure osmometer); format: physicochemical
# [4] = Saturation of the continuous phase by the drug; format: physicochemical; details: continuous phase 60 wt % maltitol, 0.2 wt % xanthan gum, about pH 7.2
# Method: A “continuous phase” or “liquid phase” as used herein, refers to the fluid or liquid phase of the suspension in which the particles are dispersed. The continuous phase may not be saturated by the drug. “Not saturated by the drug” as used herein refers to the amount of drug in the continuous phase being less than the amount at which the continuous phase is saturated with the drug at the temperature at which the saturation is measured. The temperature at which saturation is measured corresponds to the temperature at which stability is performed. In an example, saturation is measured at 30° C.
Compound,Osmolality (experimental) ([1]; dry matter content 10% (wt %)),Osmolality (extrapolated) ([1]; dry matter content 10% (wt %)),Osmolality (experimental) ([1]; dry matter content 20% (wt %)),Osmolality (extrapolated) ([1]; dry matter content 20% (wt %)),Osmolality (experimental) ([1]; dry matter content 30% (wt %)),Osmolality (extrapolated) ([1]; dry matter content 30% (wt %)),Osmolality (experimental) ([1]; dry matter content 40% (wt %)),Osmolality (extrapolated) ([1]; dry matter content 40% (wt %)),Osmolality (extrapolated) ([1]; dry matter content 50% (wt %)),Osmolality (extrapolated) ([1]; dry matter content 60% (wt %)),Solubility ([2]; 25° C.),Osmolality of saturated solution ([3]; 25° C.),also measured
OC[C@@H](O)[C@@H](O[C@H]1O[C@H](CO)[C@@H](O)[C@H](O)[C@H]1O)[C@H](O)[C@@H](O)CO [maltitol],333 mOsm/kg sol,330 mOsm/kg,779 mOsm/kg sol,791 mOsm/kg,1340 mOsm/kg sol,1322 mOsm/kg,2265 mOsm/kg sol,2277 mOsm/kg,3879 mOsm/kg,6538 mOsm/kg,–,–,Osmolality (experimental) ([1]; dry matter content 50% (wt %)): 3882 mOsm/kg sol
"CC(=O)Nc1ccc(O)cc1 [Acetaminophen, acetaminophen]",–,–,–,–,–,–,–,–,–,–,14 mg/g,74 mosmol/kg,Solubility ([2]; 40° C.): 20 mg/g; Osmolality of saturated solution ([3]; 40° C.): 112 mosmol/kg
COc1ccccc1OCC(O)CO (centres unmarked) [guaifenesin],–,–,–,–,–,–,–,–,–,–,–,–,saturation of the continuous phase by the drug [4]: 15.3 mg/g
"CC(=O)Oc1ccccc1C(=O)O [Aspirin, aspirin]",–,–,–,–,–,–,–,–,–,–,2.5 mg/g,–,–
"Cc1ccc(=O)n(-c2ccccc2)c1 [Pirfenidone, pirfenidone]",–,–,–,–,–,–,–,–,–,–,18 mg/g,84 mosmol/kg,–
"OC[C@@H](O)[C@@H](O)[C@H](O)[C@@H](O)CO [Sorbitol, sorbitol]",599 mOsm/kg sol,610 mOsm/kg,1376 mOsm/kg sol,1364 mOsm/kg,2407 mOsm/kg sol,2426 mOsm/kg,4125 mOsm/kg sol,4122 mOsm/kg,6816 mOsm/kg,10777 mOsm/kg,–,–,Osmolality (experimental) ([1]; dry matter content 5% (wt %)): 276 mOsm/kg sol; Osmolality (extrapolated) ([1]; dry matter content 5% (wt %)): 269 mOsm/kg; Osmolality (experimental) ([1]; dry matter content 15% (wt %)): 954 mOsm/kg sol; Osmolality (extrapolated) ([1]; dry matter content 15% (wt %)): 960 mOsm/kg; Osmolality (experimental) ([1]; dry matter content 25% (wt %)): 1844 mOsm/kg sol; Osmolality (extrapolated) ([1]; dry matter content 25% (wt %)): 1830 mOsm/kg
